Experimental data: patent US6362369B1, “Phthalic acid diamide derivatives fluorine-containing aniline compounds as starting material, agricultural and horticultural insecticides, and a method for application of the insecticides” (Nihon Nohyaku Co., Ltd., priority 1997, dated 2002)

test system: diamondback moth (Plutella xylostella); assay: Insecticidal effect on diamondback moth (Test Example 1); format: in vivo; conditions: diamondback moth; judged by the criterion of Test Example 1
Description: Insecticidal effect on diamondback moth (Plutella xylostella) Adult diamondback moths were released and allowed to oviposit on a Chinese cabbage seedling. […] After air-drying, it was allowed to stand in a room thermostated at 25° C. Six days after the immersion, the hatched insects were counted. The mortality was calculated according to the following equation and the insecticidal effect was judged according to the criterion shown below. The test was carried out with triplicate groups of 10 insects. [table]

SMILES	Insecticidal effect (Test Example 1), judged from mortality
Cc1cc(NC(=O)c2cccc(I)c2C(=O)NC(C)C)c(Br)cc1C(F)(C(F)(F)F)C(F)(F)F [compound 1698]	A (100)
Cc1cc(C(F)(F)C(F)(F)F)ccc1NC(=O)c1cccc(Cl)c1C(=O)N(C)Cc1ccccc1F [compound 1579]	A (100)
Cc1cc(C(F)(F)C(F)(F)F)c(C)cc1NC(=O)c1cccc(I)c1C(=O)NC(C)(C)C [compound 1611]	A (100)
Cc1cc(C(F)(F)C(F)(F)F)ccc1NC(=O)c1c(Cl)cccc1C(=O)NCc1ccc(OC(F)(F)F)cc1 [compound 1577]	A (100)

same assay, conditions: diamondback moth; judged by the mortality criterion of Test Example 1

SMILES	Insecticidal effect, Test Example 1
Cc1ccc(F)cc1NC(=O)c1ccc(Cl)cc1C(=O)NC(C)C [compound 179]	A (100)
Cc1cc(SC(C)C)ccc1NC(=O)c1ccccc1C(=O)NC(C)C [compound 68]	A (100)
Cc1ccc(F)cc1NC(=O)c1cc(Cl)ccc1C(=O)NC(C)C [compound 192]	A (100)
CC(C)NC(=O)c1cc(Cl)ccc1C(=O)Nc1ccccc1 [compound 168]	A (100)
Cc1cc(OC(F)F)ccc1NC(=O)c1c(C(=O)NC(C)C)ccc(Br)c1Br [compound 342]	A (100)
CC(C)NC(=O)c1ccccc1C(=O)Nc1ccc(SCC(F)(F)F)cc1 [compound 33]	A (100)
CC(C)NC(=O)c1ccccc1C(=O)Nc1ccc(SC(F)(F)C(F)(F)Br)cc1 [compound 37]	A (100)
CC(C)NC(=O)c1cccc(Cl)c1C(=O)Nc1ccc2[nH]c(C(F)(F)F)nc2c1 [compound 256]	A (100)
CCCNC(=O)c1ccccc1C(=O)Nc1ccc(C(F)(F)F)cc1 [compound 14]	A (100)
CC(C)NC(=O)c1c(Cl)cccc1C(=O)Nc1ccc(SCC(F)(F)F)cc1 [compound 101]	A (100)

same assay, conditions: diamondback moth; mortality judged by criterion of Test Example 1

SMILES	Insecticidal effect, Test Example 1
Cc1cc(OC(F)(F)F)ccc1NC(=O)c1ccc(F)c(F)c1C(=O)NC(C)C [compound 1283]	A (100)
Cc1cc(C(F)(F)C(F)(F)F)ccc1NC(=O)c1cccc(Cl)c1C(=O)NCc1ccc(Cl)cc1Cl [compound 1349]	A (100)
Cc1cc(C(F)(F)C(F)(F)F)ccc1NC(=O)c1c(Cl)cccc1C(=O)NCCCc1ccccc1 [compound 1332]	A (100)
Cc1cc(C(F)(F)C(F)(F)F)ccc1NC(=O)c1c(Cl)cccc1C(=O)NC(C)c1ccccc1Cl (centres unmarked) [compound 1363]	A (100)
Cc1cc(C(F)(F)C(F)(F)F)ccc1NC(=O)c1cccc(I)c1C(=O)N1CCC(C)CC1 [compound 1083]	A (100)
Cc1cc(C(F)(F)C(F)(F)F)ccc1NC(=O)c1c(Cl)cccc1C(=O)NC(C)c1ccc(Cl)cc1 (centres unmarked) [compound 1367]	A (100)
C=CCNC(=O)c1cccc(I)c1C(=O)Nc1ccc(C(F)(F)C(F)(F)F)cc1C [compound 988]	A (100)
COc1cccc(CNC(=O)c2cccc(Cl)c2C(=O)Nc2ccc(C(F)(F)C(F)(F)F)cc2C)c1 [compound 1346]	A (100)
Cc1cc(C(F)(F)C(F)(F)F)ccc1NC(=O)c1c(Cl)cccc1C(=O)NC(C)c1ccccc1 (centres unmarked) [compound 1322]	A (100)
CC(C)(C)NC(=O)c1ccccc1C(=O)Nc1ccc2c(c1)OC(F)(F)C(F)(F)O2 [compound 1065]	A (100)
Cc1cc(C(F)(F)C(F)(F)F)ccc1NC(=O)c1cccc(Cl)c1C(=O)NCCOc1ccccc1Cl [compound 1368]	A (100)

same assay, conditions: mortality judged according to the criterion shown in Test Example 1

SMILES	Insecticidal effect on diamondback moth (Test Example 1), judged grade
CC(C)NC(=O)c1c(C(=O)Nc2ccc(F)c(F)c2)cccc1[N+](=O)[O-] [compound 642]	A (100)
CC(C)NC(=O)c1cccc(I)c1C(=O)Nc1ccc(OC(F)F)cc1C(F)(F)F [compound 465]	A (100)
Cc1cc(OC(F)(F)C(F)C(F)(F)F)ccc1NC(=O)c1c(C(=O)NC(C)C)cccc1[N+](=O)[O-] (centres unmarked) [compound 743]	D (79-50)
Cc1cc(Cl)ccc1NC(=O)c1cccc(S(=O)(=O)C(C)C)c1C(=O)NC(C)C [compound 796]	A (100)
Cc1cc(Cl)c(Cl)cc1NC(=O)c1cccc([N+](=O)[O-])c1C(=O)NC(C)C [compound 668]	A (100)
Cc1cc(Cl)ccc1NC(=O)c1cccc([S+]([O-])C(C)C)c1C(=O)NC(C)C (centres unmarked) [compound 793]	A (100)
CCCCNC(=O)c1c(C(=O)Nc2cc(Cl)ccc2C)cccc1[N+](=O)[O-] [compound 830]	C (89-80)
CC(C)NC(=O)c1c(C(=O)Nc2ccc(SC(F)(F)C(F)F)cc2)cccc1[N+](=O)[O-] [compound 626]	A (100)
CC(C)NC(=O)c1c(C(=O)Nc2ccc(Cl)cc2)cccc1[N+](=O)[O-] [compound 588]	A (100)
CC(C)NC(=O)c1c(C(=O)Nc2cccc(Br)c2)cccc1[N+](=O)[O-] [compound 590]	A (100)
Cc1ccc(Br)cc1NC(=O)c1cccc([N+](=O)[O-])c1C(=O)NC(C)C [compound 672]	A (100)
CC(C)NC(=O)c1c(F)cccc1C(=O)Nc1ccc(SCC(F)(F)F)cc1 [compound 478]	A (100)
CC(C)NC(=O)c1c(C(=O)Nc2ccc3c(c2)nc(C(F)(F)F)n3C)cccc1[N+](=O)[O-] [compound 737]	A (100)
CC(C)NC(=O)c1c(C(=O)Nc2cc(F)ccc2F)cccc1[N+](=O)[O-] [compound 640]	A (100)
Cc1ccc(Cl)cc1NC(=O)c1c(C(=O)NC(C)C)cccc1C(F)(F)F [compound 766]	A (100)
Cc1ccc(NC(=O)c2cccc([N+](=O)[O-])c2C(=O)NC(C)C)cc1 [compound 601]	A (100)
Cc1cccc(NC(=O)c2cccc([N+](=O)[O-])c2C(=O)NC(C)C)c1 [compound 600]	A (100)
Cc1cc(SC(C)C)ccc1NC(=O)c1cccc([N+](=O)[O-])c1C(=O)NC(C)C [compound 721]	A (100)
Cc1ccc(F)cc1NC(=O)c1cccc([N+](=O)[O-])c1C(=O)NC1CCC1 [compound 855]	A (100)
Cc1cc(Oc2c(F)c(F)c(F)c(F)c2F)ccc1NC(=O)c1cccc(F)c1C(=O)NC(C)C [compound 520]	A (100)
Cc1ccc(Cl)cc1NC(=O)c1ccccc1C(=O)NCC(F)(F)F [compound 864]	A (100)
CC(C)NC(=O)c1cccc(Cl)c1C(=O)Nc1ccc(C=C(Cl)Cl)cc1 [compound 916]	A (100)
